Measured values from patent US20100056524A1, “Compound” (priority 2008, published 2010).
Structures can show the parent of a compound that is named as a salt.

Biological target: T1, TBK1 (Homo sapiens, UniProt Q9UHD2)
T1 construct: All protein kinases were of human origin and encoded full length proteins, unless indicated otherwise; His6; made in house; host or cells: insect Sf21 cells
T1 sequence (Q9UHD2 1-729): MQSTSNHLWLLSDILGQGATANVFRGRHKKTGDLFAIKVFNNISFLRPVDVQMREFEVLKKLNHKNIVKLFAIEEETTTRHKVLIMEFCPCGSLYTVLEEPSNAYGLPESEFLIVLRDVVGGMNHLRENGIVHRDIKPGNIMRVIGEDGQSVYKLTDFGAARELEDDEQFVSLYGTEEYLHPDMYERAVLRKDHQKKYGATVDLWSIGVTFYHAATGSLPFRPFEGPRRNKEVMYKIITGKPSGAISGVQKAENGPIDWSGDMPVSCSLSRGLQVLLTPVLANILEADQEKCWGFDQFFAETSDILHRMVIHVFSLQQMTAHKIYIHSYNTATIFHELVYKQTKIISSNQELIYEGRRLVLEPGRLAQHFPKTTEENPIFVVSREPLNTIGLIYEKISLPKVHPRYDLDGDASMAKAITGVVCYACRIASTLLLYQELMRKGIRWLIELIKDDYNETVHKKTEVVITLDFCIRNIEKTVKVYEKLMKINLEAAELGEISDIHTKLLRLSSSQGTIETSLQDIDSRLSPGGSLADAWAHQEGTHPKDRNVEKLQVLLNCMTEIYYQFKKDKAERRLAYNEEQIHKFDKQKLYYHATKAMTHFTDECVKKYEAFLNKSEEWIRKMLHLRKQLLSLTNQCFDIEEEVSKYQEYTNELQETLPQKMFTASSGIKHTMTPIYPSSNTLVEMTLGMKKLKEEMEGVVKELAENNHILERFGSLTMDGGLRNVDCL
Experiment: TBK1 protein kinase assay ([γ-33P]ATP, P81 filterplates)
Type: biochemical
Conditions: 50 μM ATP; read-out: Potency (TBK1 IC50 potency score)
Procedure, shortened: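 Human TBK1 assayed for 30 min with peptide substrate (300 μM), 50 μM [γ-33P]ATP and 10 mM magnesium acetate in 50 mM Tris/HCl pH 7.5, 0.1 mM EGTA, 0.1% 2-mercaptoethanol. Stopped with orthophosphoric acid and counted on P81 filters. IC50 from 10 compound concentrations.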

| SMILES | IC50 [nM] |
| --- | --- |
| CC(C)CN(C)Cc1cccc(Nc2ncc(C3CC3)c(NCCCNC(=O)C3CCC3)n2)c1 [Example 133, Cyclobutanecarboxylic acid [3-(5-cyclopropyl-2-{3-[(isobutyl-methyl-amino)-methyl]-phenylamino}-pyrimidin-4-ylamino)-propyl]-amide] | < 100 |
| O=C(NCCCNc1nc(Nc2cccc(CN3CCCCC3)c2)ncc1C1CC1)C1CCC1 [Example 134, Cyclobulanecarboxylic acid {3-[5-cyclopropyl-2-(3-piperidin-1-ylmethyl-phenylamino)-pyrimidin-4-ylamino]-propyl}-amide] | < 100 |
| O=C(NCCCNc1nc(Nc2cccc(CN3CCC(F)(F)CC3)c2)ncc1C1CC1)C1CCC1 [Example 135, Cyclobutanecarboxylic acid (3-{5-cyclopropyl-2-[3-(4,4-difluoro-piperidin-1-ylmethyl)-phenylamino]-pyrimidin-4-ylamino}-propyl)-amide] | < 100 |
| N#CCc1cccc(Nc2ncc(C3CC3)c(NCCCNC(=O)C3CCC3)n2)c1 [Example 136, Cyclobutanecarboxylic acid {3-[2-(3-cyanomethyl-phenylamino)-5-cyclopropyl-pyrimidin-4-ylamino]-propyl}-amide] | < 100 |
| Cn1ncc2cc(Nc3ncc(C4CC4)c(NCCCNC(=O)C4CCC4)n3)ccc21 [Example 137, Cyclobutanecarboxylic acid {3-[5-cyclopropyl-2-(1-methyl-1H-indazol-5-ylamino)-pyrimidin-4-ylamino]-propyl}-amide] | < 100 |
| Cn1cc2ccc(Nc3ncc(C4CC4)c(NCCCNC(=O)C4CCC4)n3)cc2n1 [Example 138, Cyclobutanecarboxylic acid {3-[5-cyclopropyl-2-(2-methyl-2H-indazol-6-ylamino)-pyrimidin-4-ylamino]-propyl}-amide] | < 100 |
| Cn1ncc2ccc(Nc3ncc(C4CC4)c(NCCCNC(=O)C4CCC4)n3)cc21 [Example 139, Cyclobutanecarboxylic acid {3-[5-cyclopropyl-2-(1-methyl-1H-indazol-6-ylamino)-pyrimidin-4-ylamino]-propyl}-amide] | < 100 |
| O=C(NCCCNc1nc(Nc2cccc(N3CCNC3=O)c2)ncc1C1CC1)C1CCC1 [Example 140, Cyclobutanecarboxylic acid (3-{5-cyclopropyl-2-[3-(2-oxo-imidazolidin-1-yl)-phenylamino]-pyrimidin-4-ylamino}-propyl)-amide] | < 100 |
| O=C(NCCCNc1nc(Nc2cccc(Br)c2)ncc1C1CC1)C1CCC1 [Example 141, Cyclobutanecarboxylic acid {3-[2-(3-bromo-phenylamino)-5-cyclopropyl-pyrimidin-4-ylamino]-propyl}-amide] | < 100 |
| O=C(NCCCNc1nc(Nc2cccc(C(=O)N3CCNCC3)c2)ncc1C1CC1)C1CCC1 [Example 142, Cyclobutanecarboxylic acid (3-{5-cyclopropyl-2-[3-(piperazine-1-carbonyl)-phenylamino]-pyrimidin-4-ylamino}-propyl)-amide. Hydrochloride] | < 100 |
| O=C(NCCCNc1nc(Nc2cccc(OCCN3CCOCC3)c2)ncc1C1CC1)C1CCC1 [Example 143, Cyclobutanecarboxylic acid (3-{5-cyclopropyl-2-[3-(2-morpholin-4-yl-ethoxy)-phenylamino]-pyrimidin-4-ylamino}-propyl)-amide] | < 100 |
| O=C(NCCCNc1nc(Nc2cccc(NC(=O)N3CCCC3)c2)ncc1C1CC1)C1CCC1 [Example 144, Pyrrolidine-1-carboxylic acid (3-{4-[3-(cyclobutanecarbonyl-amino)-propylamino]-5-cyclopropyl-pyrimidin-2-ylamino}-phenyl)-amide] | < 100 |
| CC(C)(c1cccc(Nc2ncc(C3CC3)c(NCCCNC(=O)C3CCC3)n2)c1)N1CCOCC1 [Example 145, Cyclobutanecarboxylic acid (3-{5-cyclopropyl-2-[3-(1-methyl-1-morpholin-4-yl-ethyl)-phenylamino]-pyrimidin-4-ylamino}-propyl)-amide] | < 100 |
| CN(C)[C@H]1CCN(Cc2ccc(Nc3ncc(C4CC4)c(NCCCNC(=O)C4CCC4)n3)cn2)C1 [Example 146, Cyclobutanecarboxylic acid (3-{5-cyclopropyl-2-[6-((S)-3-dimethylamino-pyrrolidin-1-ylmethyl)-pyridin-3-ylamino]-pyrimidin-4-ylamino}-propyl)-amide] | < 100 |
| CN1CCN(Cc2ccc(Nc3ncc(C4CC4)c(NCCCNC(=O)C4CCC4)n3)cn2)CC1 [Example 147, Cyclobutanecarboxylic acid (3-{5-cyclopropyl-2-[6-(4-methyl-piperazin-1-ylmethyl)-pyridin-3-ylamino]-pyrimidin-4-ylamino}-propyl)-amide] | < 100 |
| O=C(NCCCNc1nc(Nc2ccc(CN3CCC(F)(F)CC3)nc2)ncc1C1CC1)C1CCC1 [Example 148, Cyclobutanecarboxylic acid (3-{5-cyclopropyl-2-[6-(4,4-difluoro-piperidin-1-ylmethyl)-pyridin-3-ylamino]-pyrimidin-4-ylamino}-propyl)-amide] | < 100 |

Other lines, results leading:

| IC50 [nM] | SMILES |
| --- | --- |
| 1000 to 10000 | O=C(NCCCNc1nc(Nc2cncnc2)ncc1C1CC1)C1CCC1 [Example 149, Cyclobutanecarboxylic acid {3-[5-cyclopropyl-2-(pyrimidin-5-ylamino)-pyrimidin-4-ylamino]-propyl}-amide] |
| < 100 | O=C(NCCCNc1nc(Nc2ccc(N3CCCCC3)nc2)ncc1C1CC1)C1CCC1 [Example 150, Cyclobutanecarboxylic acid {3-[5-cyclopropyl-2-(3,4,5,6-tetrahydro-2H-[1,2′]bipyridinyl-5′-ylamino)-pyrimidin-4-ylamino]-propyl}-amide] |
| < 100 | O=C(NCCCNc1nc(Nc2ccc(N3CCCC3)nc2)ncc1C1CC1)C1CCC1 [Example 151, Cyclobutanecarboxylic acid {3-[5-cyclopropyl-2-(6-pyrrolidin-1-yl-pyridin-3-ylamino)-pyrimidin-4-ylamino]-propyl}-amide] |
| < 100 | O=C(NCCCNc1nc(Nc2cnc(N3CCOCC3)nc2)ncc1C1CC1)C1CCC1 [Example 152, Cyclobutanecarboxylic acid {3-[5-cyclopropyl-2-(2-morpholin-4-yl-pyrimidin-5-ylamino)-pyrimidin-4-ylamino]-propyl}-amide] |
| < 100 | Cn1cc(Nc2ncc(C3CC3)c(NCCCNC(=O)C3CCC3)n2)cn1 [Example 153, Cyclobutanecarboxylic acid {3-[5-cyclopropyl-2-(1-methyl-1H-pyrazol-4-ylamino)-pyrimidin-4-ylamino]-propyl}-amide] |
| < 100 | O=C(NCCCNc1nc(Nc2ccc(OCCN3CCOCC3)nc2)ncc1C1CC1)C1CCC1 [Example 154, Cyclobutanecarboxylic acid (3-{5-cyclopropyl-2-[6-(2-morpholin-4-yl-ethoxy)-pyridin-3-ylamino]-pyrimidin-4-ylamino}-propyl)-amide] |
| < 100 | O=C(NCCCNc1nc(Nc2cnn(CCN3CCOCC3)c2)ncc1C1CC1)C1CCC1 [Example 155, Cyclobutanecarboxylic acid (3-{5-cyclopropyl-2-[1-(2-morpholin-4-yl-ethyl)-1H-pyrazol-4-ylamino]-pyrimidin-4-ylamino}-propyl)-amide] |
